Measured values taken from patent US20110098219A1, “System for Curing Hepatic Cancer with Leptin” (KAOHSIUNG MEDICAL UNIVERSITY, priority 2009, published 2011).

Assays:
Format in all cases: cell-based
liver cancer cells = assay: Flow cytometry, cell cycle of liver cancer cells; details: MPA only, 24 hours
Experimental: Please refer to FIG. 6A and FIG. 6B, which are views showing effect of MPA+leptin on cell cycle. As shown in the figures, for further recognizing role of MPA+leptin for liver cancer cells, the preferred embodiment applies leptin only, MPA only and MPA+leptin on liver cancer cells for 24 hours and a flow cytometry is used to show their effects on cell cycle. Furthermore, sub-G1/apoptosis parts in the cell cycle are analyzed through student's t-test.

JAK/STAT path = assay: Western blotting of JAK/STAT path proteins in liver cancer cells; details: 24 hours
Experimental: Please refer to FIG. 11, which is a view showing expression of JAK/STAT path after applied with a drug. As shown in the figure, the preferred embodiment analyzes related proteins of liver cancer cells through western blotting after applied with MPA+leptin for 24 hours.
Please refer to FIG. 13A and FIG. 13A, which are views showing expressions of proteins of JAK/STAT path and proteins of MAPK path after applied with a drug for a short time. As shown in the figures, the preferred embodiment processes liver cancer cells with high-dose leptin, high-dose MPA and high-dose leptin combined with high-dose MPA for 30 minutes. Then, related JAK/STAT proteins are collected for analyzing their expressions through western blotting.
Please refer to FIG. 14, which is a view showing reduced p-STAT3 degradation by suppressing the ERK1/2 activation and the PIAS3 expression. […] The preferred embodiment uses a 10^−6M p-ERK1/2 inhibitor (U0126) for 4 hours before a drug is applied; then, liver cancer cells are applied with the drug of MPA+leptin for 3 hours to collect cellular proteins for analyzing expression of related proteins through western blotting. […] As a conclusion, MPA activates ERK1/2 to indirectly induce PIAS3 expression for suppressing p-STAT3 (Tyr705) for cell apoptosis, where leptin enhances activation of ERK1/2 with MPA for increasing cell apoptosis.
Please refer to FIG. 15A to FIG. 16B, which are views showing cells containing very much leptin within; suppressed growth of the cells by using MPA; and STAT3- and MAPK-signal paths of the cells after MPA is applied. […] Then, after the cells are processed with 10^−4M MPA for 24 hours, cell growth is analyzed through XTT assay. […] Then, after the cells are processed with 10^−4 M MPA for 24 hours, JAK/STAT-related proteins are analyzed through western blotting.

[1] = test system: cleaved caspase 3, cleaved caspase 7 and cleaved PARP; assay: Western blotting of apoptosis-related proteins; details: 24 hours
Experimental: Please refer to FIG. 7, which is a view showing effect of MPA+leptin on related proteins for apoptosis. As shown in the figure, through analysis on liver cancer cells after applied with MPA+leptin for 24 hours, observation is done with a focus on changes of their related proteins for apoptosis. When different doses of MPA are combined with different doses of leptin for treatment for 24 hours, cellular proteins of anti-cleaved caspase 3, anti-cleaved caspase 7 and anti-cleaved Poly-ADP-ribose-polymerase (PARP) are processed with western blotting.

[2] = test system: epithelial cell line of normal liver (THLE-3); assay: XTT assay, survival of normal liver epithelial cell line; details: THLE-3, FIG. 17A
Experimental: Please refer to FIG. 17A to FIG. 18B, which are views showing epithelial cell line of normal liver treated with MPA+leptin for 24 hours and 48 hours respectively; and views showing STAT3- and MAPK-related signal paths after treating cell line of normal liver with MPA+leptin. As shown in the figures, after epithelial cell line of normal liver (THLE-3) is applied with MPA+leptin for […], MPA+leptin's effect on cell growth (i.e. survival rate) is analyzed through XTT assay. […] Besides, in FIG. 18A and FIG. 18B, protein expressions for STAT- and MAPK-related signal paths are analyzed.

CC(=O)O[C@]1(C(C)=O)CC[C@H]2[C@@H]3C[C@H](C)C4=CC(=O)CC[C@]4(C)[C@H]3CC[C@@]21C [MPA, medroxyprogesterone acetate]
G1 and G2/M (liver cancer cells): decreased trend
S (liver cancer cells): increased trend
sub-G1 (liver cancer cells): increasing trend
p-ob-R, ob-R and PgR expression (JAK/STAT path): suppresses
activation of STAT3 compared with cells without much leptin (JAK/STAT path; pcLeptin-transfected cells, 10^-4 M MPA): more obviously suppressed
activation of cleaved caspase 3/7 and cleaved PARP [1]: obviously activated
effect on survival rate of, and poisoning of, normal liver epithelial cells [2]: no obvious effect
